Reference: PMC12143348, “Rapid and reversible fluorescent probe enables repeated snapshot imaging of AMPA receptors during synaptic plasticity” (Science Advances, 2025)
“Also recorded” adds a separate entry of the source.

Assays:
[1] = molecular target: T1, GluA2flip(Q) (Mus musculus, UniProt P23819, DEL765-802); experiment: Concentration-dependent binding of fluorophore-ligand conjugates, confocal live imaging of HEK293T cells expressing GluA2
T1 construct: expressed in transfected cells; host or cells: HEK293T
Protocol: For evaluating the concentration dependency of fluorophore-ligand conjugates, 0.1 nM probe in HBS was added to the dish. Then, probes in HBS were added stepwise to the dish to a final concentration of 0.3, 1, 3, 10, 30, 100, 300, 1000, and 3000 nM. Cell surface fluorescence intensity was quantified from the line scans of transfection marker positive cells and calculated with subtraction of background by ZEN blue software (Carl Zeiss). The membrane intensity was fitted with KaleidaGraph (Synergy software) to calculate the equilibrium constant value using the following equation: a + (b − a)/(1 + (x/c)^d). The equilibrium constant is regarded as the Kd in this study.

[2] = molecular target: T2, GluA2flip(R) + GSG1L (Mus musculus, UniProt P23819, DEL765-802/Q607R); experiment: Concentration-dependent binding of PFQX1(AF488) to GluA2flip(R) expressed with GSG1L in HEK293T cells; conditions: n = 3–4, read-out: Kd / Affinity of PFQX1(AF488) to GluA2flip(R) with GSG1L
T2 construct: expressed in transfected cells; host or cells: HEK293T
Protocol: (§1) HEK293T cells were cotransfected with plasmids for AMPAR [5′UTR-GluA1^flip(R)-3′UTR, GluA2^flip(Q)-3′UTR, GluA3^flip(Q) (Y454A/R461G), and GluA4^flip(Q)], kainate receptor [GluK2(Q)], auxiliary subunits, or the control vector and transfection marker (EFGP-F or mCherry-F). Fluorophore-ligand conjugates were diluted in Hepes-buffered saline (HBS) buffer [20 mM Hepes (pH 7.4), 107 mM NaCl, 6 mM KCl, 1.2 mM MgSO4, 2 mM CaCl2, and 11.5 mM glucose] and added to the cells. Confocal live imaging was performed with LSM900 (Carl Zeiss) equipped with a 63×, numerical aperture (NA) = 1.4 oil-immersion objective. Fluorescence images were acquired by excitation at 405, 488, 561, or 640 nm derived from diode lasers.
For evaluating the concentration dependency of fluorophore-ligand conjugates, 0.1 nM probe in HBS was added to the dish. Then, probes in HBS were added stepwise to the dish to a final concentration of 0.3, 1, 3, 10, 30, 100, 300, 1000, and 3000 nM. Cell surface fluorescence intensity was quantified from the line scans of transfection marker positive cells and calculated with subtraction of background by ZEN blue software (Carl Zeiss). […]
(A) Concentration-dependent binding of PFQX1(AF488) to GluA2 flip(R) expressed with GSG1L or TARP γ7. […] (B) The surface intensity of PFQX1(AF488) was quantified. […]

[3] = molecular target: T3, GluK2(Q) (Rattus norvegicus, UniProt P42260); experiment: Confocal live imaging of HEK293T cells expressing GluK2(Q) treated with PFQX1(AF488); format: binding; conditions: even at high concentration (300 nM)
T3 construct: expressed in transfected cells; host or cells: HEK293T
Protocol: as §1
Anti-HA mCherry-F Merge1.0
Fig. S8. Sub-micromolar concentrations of PFQX1(AF488) fail to visualize cell surface kainate receptors in HEK293T cells. (A) HA-tag staining of GluK2(Q).
GluK2(Q) expressing cells were treated with anti-HA antibody (Alexa Fluor 647 conjugate) for 15 min. Scale bar, 10 µm. (B) Fluorescence Ca2+ assay to analyze the inhibition of 100 µM kainic acid-induced response by PFQX-amine. HEK293T cells were transfected with GluK2(Q). The intensity was normalized to that at 0.1 µM PFQX-amine (n = 3). (C) Representative results of confocal live cell imaging of HEK293T cells expressing GluK2(Q) are shown. mCherry-F was used as a transfection marker. […]

[4] = pH-dependency of fluorescent intensity in GTA buffer (spectrofluorophotometer); format: physicochemical; conditions: 2 µM probe in GTA buffer pH 4–10, normalized to pH 10
Protocol: Evaluation of the affinity of PFQX-amine
HEK293T cells were co-transfected with GluA2 flip(Q)-3’UTR and mCherry-F as a transfection marker. After washing the cells with HBS, 30 nM PFQX1(AF488) was added to the dish. Then, PFQX-amine in HBS was step-wisely added to the dish to a final […]
performed with confocal microscopy. Cell surface fluorescent intensity was quantified from the line scans of transfection marker positive cells calculated by ZEN blue software and calculated with subtraction of background. The membrane intensity was fitted with KaleidaGraph to calculate the IC50 value using the following equation:a + (b-a)/(1+(x/c)^d). The Ki value was calculated using the Cheng-Prusoff equation: Ki = IC50/(1+[S]/K d). In the equation, [S] and Kd were the concentration and dissociation constant of PFQX1(AF488), respectively. pH-dependency of fluorescent intensity
Fluorescent intensity was determined by spectrofluorophotometer RF-6000 (Shimadzu). […]
glutaric acid, 0.1 M Tris, 0.1 M 2-amino-2-methyl-1,3-propanediol) to a final concentration of 2 µM. pH value of GTA buffer was adjusted to 4, 5, 6, 7, 8, 9, and 10.
Fluorescent intensity was normalized by the intensity at pH 10.
For the evaluation in cells, HEK293T cells expressing GluA2 or primary cultured hippocampal neurons were used. […]

[5] = molecular target: T4, GluA2 (Mus musculus, UniProt P23819, DEL765-802); experiment: Kinetics and reversibility of PFQX1(AF488) binding in HEK293T cells expressing GluA2; conditions: 100 nM probe
T4 construct: expressed in transfected cells; host or cells: HEK293T
Protocol: HEK293T cells were transfected with Halo-tag-GluA2^flip(Q)-3′UTR. The cells were incubated with 500 nM Halo-Tag ligand-Alexa647 [HTL(AF647)] for 15 min at room temperature. AF647 was used as a transfection marker. The cells were washed three times with HBS, and a cloning ring (16 mm φ) was placed on the dish to accelerate the diffusion of the probe solution. After the dish was set on the stage, 100 nM PFQX1(AF488) was added to inside the cloning ring and imaged at specified time points by confocal microscopy.
For evaluating reversibility, 100 nM PFQX1(AF488) in HBS was added to the dish. The cells were observed by confocal microscopy as the first image. Then, the cells were washed three times with HBS and scanned as the wash image. After removal of the buffer, 100 nM PFQX1(AF488) was re-treated, and the cells were scanned as the second image. To quantify the fluorescence intensity of the membrane, the average signal intensity of regions of interest (ROIs) set on the membrane was calculated after subtracting background fluorescence by ZEN blue software.

T4 sequence (P23819 with tags, fused parts or gaps isoform P23819-4 DEL765-802): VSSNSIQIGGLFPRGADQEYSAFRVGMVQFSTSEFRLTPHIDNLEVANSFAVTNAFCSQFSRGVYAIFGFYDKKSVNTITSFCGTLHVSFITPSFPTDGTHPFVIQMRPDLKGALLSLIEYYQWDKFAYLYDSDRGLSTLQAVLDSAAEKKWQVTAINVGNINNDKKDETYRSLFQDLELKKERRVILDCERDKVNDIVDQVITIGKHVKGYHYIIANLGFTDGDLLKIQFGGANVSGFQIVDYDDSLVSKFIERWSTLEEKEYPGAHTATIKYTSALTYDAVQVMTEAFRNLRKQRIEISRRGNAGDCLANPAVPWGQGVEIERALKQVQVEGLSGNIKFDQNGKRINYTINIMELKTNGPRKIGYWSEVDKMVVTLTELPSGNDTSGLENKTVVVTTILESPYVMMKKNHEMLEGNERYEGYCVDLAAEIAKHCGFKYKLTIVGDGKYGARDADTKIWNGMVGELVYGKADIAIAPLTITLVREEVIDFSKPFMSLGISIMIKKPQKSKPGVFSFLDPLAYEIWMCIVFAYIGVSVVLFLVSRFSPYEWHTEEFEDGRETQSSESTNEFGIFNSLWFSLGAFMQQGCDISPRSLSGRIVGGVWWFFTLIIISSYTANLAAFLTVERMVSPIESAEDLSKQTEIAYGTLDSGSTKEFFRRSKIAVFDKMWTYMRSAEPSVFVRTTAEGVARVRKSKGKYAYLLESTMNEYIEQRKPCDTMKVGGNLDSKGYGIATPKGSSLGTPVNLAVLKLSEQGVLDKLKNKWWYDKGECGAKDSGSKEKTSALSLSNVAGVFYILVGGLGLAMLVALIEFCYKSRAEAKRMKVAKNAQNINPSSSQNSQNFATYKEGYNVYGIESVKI
T1 sequence (P23819 with tags, fused parts or gaps isoform P23819-4 DEL765-802): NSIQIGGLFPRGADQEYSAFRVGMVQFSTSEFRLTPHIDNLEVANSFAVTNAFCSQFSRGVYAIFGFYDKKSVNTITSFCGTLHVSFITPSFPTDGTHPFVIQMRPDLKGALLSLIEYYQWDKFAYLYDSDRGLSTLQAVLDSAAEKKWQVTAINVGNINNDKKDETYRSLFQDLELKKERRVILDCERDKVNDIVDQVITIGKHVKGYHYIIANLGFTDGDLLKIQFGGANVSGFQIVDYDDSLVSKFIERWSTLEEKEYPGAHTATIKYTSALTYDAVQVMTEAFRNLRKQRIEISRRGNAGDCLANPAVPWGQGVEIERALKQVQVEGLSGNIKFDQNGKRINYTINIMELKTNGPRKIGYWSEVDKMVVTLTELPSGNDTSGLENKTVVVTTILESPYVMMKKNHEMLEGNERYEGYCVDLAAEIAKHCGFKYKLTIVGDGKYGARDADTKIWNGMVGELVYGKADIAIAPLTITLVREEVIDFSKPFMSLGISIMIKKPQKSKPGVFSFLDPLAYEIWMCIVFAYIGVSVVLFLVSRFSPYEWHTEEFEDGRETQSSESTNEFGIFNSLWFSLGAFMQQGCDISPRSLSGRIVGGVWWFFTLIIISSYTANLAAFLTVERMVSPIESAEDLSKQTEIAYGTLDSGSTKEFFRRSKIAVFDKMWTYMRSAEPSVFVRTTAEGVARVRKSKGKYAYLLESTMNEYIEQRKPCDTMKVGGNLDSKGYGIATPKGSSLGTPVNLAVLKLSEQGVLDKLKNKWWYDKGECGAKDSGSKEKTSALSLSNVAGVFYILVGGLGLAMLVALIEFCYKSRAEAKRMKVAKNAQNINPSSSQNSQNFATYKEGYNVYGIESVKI
T3 sequence (P42260 32-908): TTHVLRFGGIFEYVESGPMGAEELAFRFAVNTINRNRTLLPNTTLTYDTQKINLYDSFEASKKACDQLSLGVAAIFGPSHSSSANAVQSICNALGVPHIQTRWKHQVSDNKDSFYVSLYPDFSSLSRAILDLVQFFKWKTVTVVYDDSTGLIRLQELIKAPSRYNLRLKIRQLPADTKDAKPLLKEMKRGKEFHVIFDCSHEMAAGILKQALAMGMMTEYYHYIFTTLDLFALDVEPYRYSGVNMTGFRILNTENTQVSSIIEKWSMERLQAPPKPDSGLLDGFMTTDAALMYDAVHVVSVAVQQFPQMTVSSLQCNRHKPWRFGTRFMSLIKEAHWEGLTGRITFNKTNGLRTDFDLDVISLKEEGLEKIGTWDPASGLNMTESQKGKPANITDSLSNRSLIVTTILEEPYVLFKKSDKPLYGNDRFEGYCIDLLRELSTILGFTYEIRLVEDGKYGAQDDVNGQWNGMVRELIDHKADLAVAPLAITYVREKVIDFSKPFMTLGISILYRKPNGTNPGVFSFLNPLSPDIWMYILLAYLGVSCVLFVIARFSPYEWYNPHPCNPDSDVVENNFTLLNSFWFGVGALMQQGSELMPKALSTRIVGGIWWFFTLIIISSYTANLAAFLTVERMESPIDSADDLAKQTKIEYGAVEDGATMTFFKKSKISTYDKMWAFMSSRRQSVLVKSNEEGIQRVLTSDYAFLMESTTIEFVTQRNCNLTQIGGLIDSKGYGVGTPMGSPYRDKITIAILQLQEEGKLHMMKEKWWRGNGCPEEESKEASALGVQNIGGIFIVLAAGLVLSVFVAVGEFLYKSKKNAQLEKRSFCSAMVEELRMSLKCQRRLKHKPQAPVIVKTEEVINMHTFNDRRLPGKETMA
T2 sequence (P23819 with tags, fused parts or gaps isoform P23819-4 Q607R/DEL765-802): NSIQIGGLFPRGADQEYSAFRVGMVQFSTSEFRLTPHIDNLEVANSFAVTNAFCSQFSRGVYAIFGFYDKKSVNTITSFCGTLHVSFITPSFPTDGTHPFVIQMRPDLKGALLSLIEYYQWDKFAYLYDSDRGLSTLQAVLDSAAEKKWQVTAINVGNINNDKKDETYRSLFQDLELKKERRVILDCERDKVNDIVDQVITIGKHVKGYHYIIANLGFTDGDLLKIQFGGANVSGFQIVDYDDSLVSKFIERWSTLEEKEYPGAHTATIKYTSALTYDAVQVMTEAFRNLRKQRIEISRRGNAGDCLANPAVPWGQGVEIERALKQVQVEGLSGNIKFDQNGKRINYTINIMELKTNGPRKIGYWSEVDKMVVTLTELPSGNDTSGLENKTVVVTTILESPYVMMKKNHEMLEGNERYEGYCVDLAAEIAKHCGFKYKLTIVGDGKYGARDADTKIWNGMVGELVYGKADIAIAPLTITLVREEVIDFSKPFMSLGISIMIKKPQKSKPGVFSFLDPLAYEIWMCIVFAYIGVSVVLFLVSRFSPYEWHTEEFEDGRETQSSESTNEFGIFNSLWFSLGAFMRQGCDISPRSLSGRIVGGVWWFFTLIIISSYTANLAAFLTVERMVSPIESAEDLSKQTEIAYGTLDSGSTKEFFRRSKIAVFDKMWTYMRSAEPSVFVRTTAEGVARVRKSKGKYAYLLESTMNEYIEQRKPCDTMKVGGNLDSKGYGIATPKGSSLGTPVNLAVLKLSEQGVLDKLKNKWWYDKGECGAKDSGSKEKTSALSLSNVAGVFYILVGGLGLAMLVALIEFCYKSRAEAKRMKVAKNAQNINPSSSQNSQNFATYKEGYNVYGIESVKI
T2 sequence (D3Z7H4 whole entry partner): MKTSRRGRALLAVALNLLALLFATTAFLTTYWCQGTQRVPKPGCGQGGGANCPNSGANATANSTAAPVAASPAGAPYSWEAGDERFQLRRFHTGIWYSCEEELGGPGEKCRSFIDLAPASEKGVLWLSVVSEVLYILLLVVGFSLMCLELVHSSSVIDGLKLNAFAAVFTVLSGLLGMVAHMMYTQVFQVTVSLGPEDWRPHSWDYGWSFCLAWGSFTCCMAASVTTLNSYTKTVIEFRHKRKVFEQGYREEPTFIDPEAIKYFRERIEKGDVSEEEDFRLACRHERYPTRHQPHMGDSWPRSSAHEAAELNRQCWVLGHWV

N=c1ccc2c(-c3ccc(C(=O)NCc4ccn(-c5cc6c(cc5C(F)(F)F)[nH]c(=O)c(=O)n6CC(=O)O)c4)cc3C(=O)O)c3ccc(N)c(S(=O)(=O)O)c3oc-2c1S(=O)(=O)O [PFQX1(AF488)]
cell-surface fluorescence / affinity to AMPARs (in words) ([1]; HEK293T cells expressing GluA2): high affinity
Kd ([1]; HEK293T cells expressing GluA2flip(Q), cell-surface fluorescence, mean ± SEM, n = 3, read-out: dissociation constant (Kd) / Affinity to GluA2): 37.2 ± 9.8 nM
Kd [2]: 34.5 ± 12.4 nM
visualization of GluK2 [3]: failed to visualize GluK2
pH dependency of the fluorescence intensity [4]: relatively unaffected at pH 5 to 10; also recorded: pH-independent manner in the pH 5 to 10 range
reversibility of binding (medium exchange) [5]: fluorescence from the cell surface was lost after the medium exchange
time to saturation of cell-surface fluorescence after probe addition [5]: ≤ 20 s
